Source: the RepoRT retention time repository (doi:10.1016/j.jpba.2019.06.042)

assay: Agilent ZORBAX Eclipse Plus C18, 150 × 2.1 mm, 3.5 µm, 0.2 mL/min, estimated dead time 1.7 min; A: water + 0.1% formic acid; B: acetonitrile; gradient (min/%B) 0/10 20/54 23/100 32/100; settings: stereoisomer not certain

SMILES | LC retention time [min]
O=c1c(OC2OC(CO)C(O)C(O)C2O)c(-c2ccc(O)c(O)c2)oc2cc(O)cc(O)c12 (stereo not given) | 8.8
COc1cc(C=CC(=O)O)cc(OC)c1O | 15.2
O=C(C=Cc1ccc(O)c(O)c1)OC1C(O)CC(O)(C(=O)O)CC1O (stereo not given) | 6.6
CC(C)=CCCC(C)=CCc1c(O)c(CC2=C(O)C(C)(C)C(=O)C(C(=O)C(C)C)=C2O)c(O)c(C(=O)C(C)C)c1O | 18.3
C=C(C)C1CC=C2C(O)CC(O)C(C)C2(C)C1 (stereo not given) | 31.6
CC1(C)C=Cc2c(cc(O)c3c(=O)c4ccc(O)c(O)c4oc23)O1 | 15.6
CC(C)=CCC1CC2(CC=C(C)C)C(=O)C(=C(O)c3ccccc3)C(=O)C(CC=C(C)C)(C2=O)C1(C)C (stereo not given) | 20.4
O=C(O)C1(O)CC(O)C(O)C(O)C1 (stereo not given) | 3.1
COc1ccc2c(=O)c3cccc(O)c3oc2c1 | 25.7
CC(C)(OC1OC(CO)C(O)C(O)C1O)C1CCC(CO)(C(O)CO)O1 (stereo not given) | 23.6
COc1ccc2ccc(=O)oc2c1CC=C(C)C | 26
CC1OC(OCC2OC(Oc3c(-c4ccc(O)c(O)c4)oc4cc(O)cc(O)c4c3=O)C(O)C(O)C2O)C(O)C(O)C1O (stereo not given) | 9.7
O=C1CC(c2ccc(O)cc2)Oc2cc(O)cc(O)c21 (stereo not given) | 15
O=c1c(-c2c(O)cc(O)c3c(=O)cc(-c4ccc(O)cc4)oc23)c(-c2ccc(O)cc2)oc2cc(O)cc(O)c12 | 13.6
CC1=CC(=O)CC(C)(C)C1(O)C=CC(C)OC1OC(CO)C(O)C(O)C1O (stereo not given) | 10.3
O=c1c2cccc(O)c2oc2cc(O)cc(O)c12 | 26.9
COc1c(-c2ccc(O)c(O)c2)oc2cc(O)cc(O)c2c1=O | 12.2
O=c1c(O)c(-c2ccc(O)c(O)c2)oc2cc(O)cc(O)c12 | 10.6

SMILES | LC retention time [min]
O=c1c(O)c(-c2ccc(O)cc2)oc2cc(O)cc(O)c12 | 13.5
CC1(C)C=Cc2c(cc(O)c3c(=O)c4cccc(O)c4oc23)O1 | 29
COc1ccc2ccc(=O)oc2c1 | 22.7
O=C1c2c(O)cc(O)cc2OC(c2ccc(O)c(O)c2)C1O (stereo not given) | 11.6
CCC(C)C(=O)c1c(O)c(C)c(O)c(CC2=C(O)C(C)(C)C(=O)C(C(=O)C(C)C)=C2O)c1O (stereo not given) | 18.4
CC1OC(Oc2cc(O)c3c(=O)c(O)c(-c4ccc(O)cc4)oc3c2)C(O)C(O)C1O (stereo not given) | 10.2
O=C1c2c(O)cc(O)cc2OC(c2ccc(O)cc2)C1O (stereo not given) | 14
O=c1cc(-c2ccc(O)c(-c3c(O)cc(O)c4c(=O)cc(-c5ccc(O)cc5)oc34)c2)oc2cc(O)cc(O)c12 | 14.9
O=C(O)C1OC(Oc2c(-c3ccc(O)c(O)c3)oc3cc(O)cc(O)c3c2=O)C(O)C(O)C1O (stereo not given) | 9.3
O=C(C=Cc1ccc(O)c(O)c1)OC1CC(O)(C(=O)O)CC(O)C1O (stereo not given) | 5.2
CCC(C)C(=O)c1c(O)c(C)c(OCC=C(C)CCC=C(C)C)c(C(C)=O)c1O (stereo not given) | 15.4
CC(C)=CCc1c(O)cc(O)c2c(=O)c3ccc(O)c(O)c3oc12 | 28.8
Cc1c(O)c(CC2=C(O)C(C)(C)C(=O)C(C(=O)C(C)C)=C2O)c(O)c(C(=O)C(C)C)c1O | 20.1
CC1OC(Oc2c(-c3ccc(O)c(O)c3)oc3cc(O)cc(O)c3c2=O)C(O)C(O)C1O (stereo not given) | 9.9
O=c1ccc2ccc(O)cc2o1 | 20.5
COc1cc(O)c2c(=O)c(O)c(-c3ccc(O)cc3)oc2c1 | 12.5
COc1cc2oc(-c3ccccc3)c(OC)c(=O)c2c(OC)c1OC | 15.9
